Where no end group is shown, it is not given here.
Tests used:
TBL1/β-catenin complex = biological target: T1, TBL1/β-catenin complex (Homo sapiens, UniProt O60907); experiment: Sandwich ELISA peptide library screening in colon cancer cell lysates; assay type: binding; conditions: screening of individual peptides, FIG. 7
T1 construct: TBL1/β-catenin complex from lysates of a colon cancer cell with active Wnt signaling was captured; endogenous in cells; host or cells: HCT15 and SW480 colon cancer cell lysates, cells pre-treated with 20 mM LiCl
T1 sequence (O60907 1-577): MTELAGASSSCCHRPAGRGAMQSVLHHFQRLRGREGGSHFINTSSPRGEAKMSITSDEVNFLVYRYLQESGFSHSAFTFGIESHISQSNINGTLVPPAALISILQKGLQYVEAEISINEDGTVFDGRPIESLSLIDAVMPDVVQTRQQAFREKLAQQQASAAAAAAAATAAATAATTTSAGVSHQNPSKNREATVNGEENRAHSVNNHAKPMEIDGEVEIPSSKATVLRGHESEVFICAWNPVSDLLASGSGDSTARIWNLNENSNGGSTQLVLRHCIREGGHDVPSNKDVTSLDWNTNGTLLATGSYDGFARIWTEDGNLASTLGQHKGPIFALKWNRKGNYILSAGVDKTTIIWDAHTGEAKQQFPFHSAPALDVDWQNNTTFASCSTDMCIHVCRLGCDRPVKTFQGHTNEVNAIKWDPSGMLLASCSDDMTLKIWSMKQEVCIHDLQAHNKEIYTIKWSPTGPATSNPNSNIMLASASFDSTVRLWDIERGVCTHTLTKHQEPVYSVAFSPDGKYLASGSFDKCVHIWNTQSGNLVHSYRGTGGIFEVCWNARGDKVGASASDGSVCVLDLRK
Experimental: To identify the peptide or peptides able to disrupt the interaction between TBL1 and (3-catenin, the sandwich ELISA approach was used (see FIG. 4). In this assay TBL1/β-catenin complex from lysates of a colon cancer cell with active Wnt signaling was captured in a Protein G ELISA 96-well plate coated with antibody that recognizes TBL1. To ensure activation of Wnt signaling, the cells were pre-treated with 20 mM LiCl for 12 h a 37° C. The bound complex was then exposed to peptides from the library either as single peptides or in a combination of 2 or 3 peptides to ensure coverage of the potential binding site between TBL1 and β-catenin. After washing away unbound proteins, the plates were incubated with β-catenin antibodies labeled with ALEXA FLUOR® 488 dye, and the level of β-catenin associated to TBL1 was quantified by a plate reader that detects the ALEXA FLUOR® 488 fluorescence probe. As a form of TBL1/β-catenin complex, we used colon cancer cell lines HCT15 and SW480. All the experiments were conducted in triplicate to ensure statistical significance. To reduce variability the assays were performed by using the EPMOTION® liquid handler. We designed a program that controls the peptide seeding into the ELISA plate wells: 1, 2 or 3 peptides per well, with overlap of one peptide in each well.
All wells in the screening were loaded with 1 mg/ml of lysate and incubated at 37° C. for 1 hour. After a wash, peptide combinations were added at a concentration of […] for each peptide and incubated at 37° C. for 2 hours followed by β-catenin detection as described. […] The SW480 lysate standard curve was generated by varying the concentration of lysate without any peptides present.
Additional screening was performed with the peptide library using the assay described in Example 2 with the colon cancer cell lines HCT15 and SW480.
Combinations of three peptides were subsequently assayed at varying concentrations to show a dose response in the disruption of the interaction between TBL1 and β-catenin.
To identify the peptide or peptides able to disrupt the interaction between TBL1 and (3-catenin, we tested the Sandwich ELISA approach. In this assay TBL1/β-catenin complex from lysates of colon cancer cell with active Wnt signaling, is captured in Protein G ELISA 96 well plate coated with antibody that recognizes TBL1. To ensure activation of Wnt signaling, the cells are pre-treated with 20 mM LiCl for 12 h a 37° C. The bound complex is then exposed to peptides from the library either as single peptide or in a combination of 2 or 3 peptides to ensure coverage of the potential binding site between TBL1 and β-catenin. After washing away unbound proteins, the plates are incubated with β-catenin antibodies labeled with Alexa Fluor 488 dye, and the level of β-catenin associated to TBL1 is quantified by a plate reader that detects the 488 fluorescence probe. As a font of TBL1/β-catenin complex we used colon cancer cell lines HCT15 and SW480. All the experiments are conducted in triplicated to ensure statistical significance, and to reduce variability we perform the assays by using the EpiMotion liquid handler. We designed a program that controls the peptide seeding into the ELISA plate wells: 1, 2 or 3 peptides per well, with overlap of one peptides in each well.

[1] = test system: β-catenin-mediated transcriptional activation (TCF/LEF); experiment: TOPFlash TCF/LEF reporter assay, reporter cells transfected with peptides; assay type: cell-based
Experimental: FIGS. 15A and 15B depict the results of a TOPFlash TCF/LEF reporter assay monitoring Wnt/β-catenin signaling pathway activity in cells expressing BC2059 (i.e., positive control) and Peptides 1-5.
A TOPFlash TCF/LEF reporter assay was performed with Peptides 1-5 as described in Veeman M T, et al. (2003) Curr Biol. 13(8):680-5. This is a luciferase reporter assay of (3-catenin-mediated transcriptional activation. Tegatrabetan (BC2059) was used as a positive control in the TOPFlash TCF/LEF reporter assay. Briefly, TCF/LEF reporter cells were transfected with the nucleofection kit. After 48 hours, the ONE-STEP™ luciferase assay was performed.

[2] = biological target: T2, TBL1 complex (β-catenin displacement) (Homo sapiens, UniProt O60907); experiment: Homologous competitive ELISA with increasing logarithmic peptide concentrations; assay type: binding; conditions: increasing logarithmic concentrations of each peptide, FIG. 11
T2 sequence (O60907 1-577): T1 sequence (O60907 1-577)

β-catenin bound to TBL1 = biological target: T3, β-catenin bound to TBL1 (Homo sapiens, UniProt O60907); experiment: Pull-down assay with TBL1 in SW480 cells transfected with peptides, Western blot; assay type: cell-based; conditions: FIG. 14
T3 construct: endogenous in cells; host or cells: SW480 colorectal cancer cells (only the peptides and the GFP control were transfected)
T3 sequence (O60907 1-577): T1 sequence (O60907 1-577)
Source text: FIG. 13 depicts a pull-down assay with TBL1 in the SW480 colorectal cancer (CRC) cell line transfected with the selected peptides.
Tegatrabetan (BC2059) is an antagonist of β-Catenin and was used as a positive control in the pull-down experiments. […] Green fluorescent protein (GFP) was also transfected into the SW480 cells as a negative control.

[3] = test system: transcription activity downstream TCF/LEF; experiment: TOPFlash assay in HEK293 TCF/LEF luciferase cells stimulated with LiCl and Wnt3a, peptide treatment; assay type: cell-based; conditions: peptide at 5 μM for 6 hours, FIG. 17
Experimental: FIG. 17 presents a TOPFlash assay to determine transcription activity downstream TCF/LEF: HEK293 cells containing a luciferase downstream TCF/LEF were LiCl was administered 16 hours prior to treatment to stimulate the Wnt pathway. Then the cells were treated with recombinant Wnt3a to stimulate transcription and peptide at 5 μM or BC-2059 at 0.5 μM for 6 hours before luciferase expression was quantified with the One-Step Luciferase assay system.
FIG. 22 presents TOPFlash assay to determine transcription activity downstream TCF/LEF: HEK293 cells containing a luciferase downstream TCF/LEF were with LiCl 16 hours prior to treatment to stimulate the Wnt pathway. Then they were treated with recombinant Wnt3a to stimulate transcription and peptide 16 (short) and 2 (long) at 5 μM or BC-2059 at 0.5 μM for 6 hours before luciferase expression was quantified with the One-Step Luciferase assay system.
FIG. 23 presents TOPFlash assay results to determine transcription activity downstream TCF/LEF dependency to peptides: HEK293 cells containing a luciferase downstream TCF/LEF were with LiCl 16 hours prior to treatment to stimulate the Wnt pathway. Then they were treated with recombinant Wnt3a to stimulate transcription and peptide 16 (short) and 2 (long) at different concentrations (300 μM-0.01 μM) for 6 hours before luciferase expression was quantified with the One-Step Luciferase assay system. […]

[4] = test system: transcription downstream TCF/LEF; experiment: Washout TOPFlash assay; assay type: cell-based; conditions: FIG. 18
Experimental: FIG. 18 presents wash out TOPFlash at 8, 12,18, and 24 hour time points: to investigate the effects of peptide 3 over time with a washout TOPFlash assay. To do this we followed the same procedure previously stated but performed washouts at 8, 12, 18, and 24 hour time points. This experiment was completed in duplicate.
FIG. 18 presents wash out TOPFlash at 8, 12,18, and 24 hour time points: to investigate the effects of peptide 3 over time with a washout TOPFlash assay. To do this we followed the same procedure previously stated but performed washouts at 8, 12, 18, and 24 hour time points.
This experiment was completed in duplicate.

H358 (lung cancer) = experiment: Cell viability by CellTiter Glo; assay type: cell-based; conditions: 300 μM-0.01 μM for 72 hours, FIG. 24
HCT15 (colon cancer) = experiment: Cell viability by CellTiter Glo; assay type: cell-based; conditions: 300 μM-0.01 μM for 72 hours, FIG. 24
HCT116 (colon cancer) = experiment: Cell viability by CellTiter Glo; assay type: cell-based; conditions: 300 μM-0.01 μM for 72 hours, FIG. 24
SW480 (colon cancer) = experiment: Cell viability by CellTiter Glo; assay type: cell-based; conditions: 300 μM-0.01 μM for 72 hours, FIG. 24

AIVEAGGMQALGLHLTDPSQ [Pep19]
disrupting the interaction between TBL1 and β-catenin (TBL1/β-catenin complex): showed efficacy

HQLSKKEASRHAIMRSPQMVSAIVRTMONTNDVETARCTAGTLH (HQLSKKEASRHAIMRSPQMVSAIVRTMQNTNDVETARCTAGTLH) [Peptide 1, longer peptide, from b112 on]
β-catenin-mediated transcriptional activation (luciferase) ([1]; initial evaluation of all five peptides, 48 hours after transfection, FIG. 15A): significant decrease | β-catenin-mediated transcriptional activation (luciferase) ([1]; second experiment evaluating only Peptide 1, FIG. 15B): confirmed the earlier result

LKVLSVCSSNKPAIVEAGGM [Pep18]
disrupting the interaction between TBL1 and β-catenin (TBL1/β-catenin complex): showed efficacy

LKVLSVCSSNKPAIVEAGGMQALGLHLTDPSQRLVQNCLWTLRN [Peptide 4]
disrupting the interaction between TBL1 and β-catenin (TBL1/β-catenin complex): showed efficacy | displacement of β-catenin from the TBL1 complex [2]: able to displace β-catenin from the TBL1 complex in a dose dependent manner | amount of β-catenin bound to TBL1 (β-catenin bound to TBL1): most pronounced effects

NQESKLIILASGGPQALVNIMRTYTYEKLLWTTSRVLKVLSVCS [Peptide 3, longer peptide; in b127-b129 apparently used as CPP peptide]
levels of luciferase after treatment [3]: decreased levels of luciferase | blocking transcription downstream TCF/LEF ([4]; conclusion of washout TOPFlash): specific and effective | luciferase produced after washout ([4]; peptide washed out after 8 and 12 hours, compared to the non washout control): increase in luciferase produced

RTMQNTNDVETARCTAGTLH [Pep6]
cytotoxic effect (cell viability) (H358 (lung cancer)): cytotoxic effect | cytotoxic effect (cell viability) (HCT15 (colon cancer)): cytotoxic effect | cytotoxic effect (cell viability) (HCT116 (colon cancer)): cytotoxic effect | cytotoxic effect (cell viability) (SW480 (colon cancer)): cytotoxic effect

TYEKLLWTTSRVLKVLSVCS [Pep17]
disrupting the interaction between TBL1 and β-catenin (TBL1/β-catenin complex): showed efficacy

VDSVLFYAITTLHNLLLHQEGAKMAVRLAGGLQKMVALLNKTNV [Peptide 2]
cytotoxic effect (cell viability) (H358 (lung cancer)): cytotoxic effect | cytotoxic effect (cell viability) (HCT15 (colon cancer)): cytotoxic effect | cytotoxic effect (cell viability) (HCT116 (colon cancer)): cytotoxic effect | cytotoxic effect (cell viability) (SW480 (colon cancer)): cytotoxic effect

VVTCAAGILSNLTCNNYKNKMMVCQVGGIEALVRTVLRAGDRED [Peptide 5, longer peptide; in b127 apparently used as CPP peptide]
disrupting the interaction between TBL1 and β-catenin (TBL1/β-catenin complex): showed efficacy | displacement of β-catenin from the TBL1 complex [2]: able to displace β-catenin from the TBL1 complex in a dose dependent manner | amount of β-catenin bound to TBL1 (β-catenin bound to TBL1): most pronounced effects | levels of luciferase after treatment [3]: decreased levels of luciferase

Source: patent US20250222062A1, “PEPTIDE INHIBITORS TARGETING THE TBL1-BETA-CATENIN COMPLEX” (THE TRANSLATIONAL GENOMICS RESEARCH INSTITUTE, priority 2022, published 2025)
